The text below walks through data of ChEMBL document CHEMBL5257033, “Pyrrolidinone and pyrrolidine derivatives: Evaluation as inhibitors of InhA and Mycobacterium tuberculosis” (Eur J Med Chem, 2016).

≈ marks a conversion by molar mass, not a printed value. Where “and” joins values, the source holds several entries; their conditions need not be identical. Identical values can stand only once. Calls of active or inactive are those of the source. The rule behind the calls is not given here. A value given as a limit tells only on which side of the number the result lay.

Series [1] deals with Mycobacterium tuberculosis. The series can be described thus: Antimycobacterial activity against wild type Mycobacterium tuberculosis H37Rv assessed as bacterial growth inhibition measured after 21 days by microbroth dilution method. The class given is functional. To be noted: for MIC: 504 h, time 21 day. A general note: Dilution methods test growth across graded concentrations, often in twofold steps.

For a further series, the system named is MRC5. The series can be described thus: (§1) Cytotoxicity against human MRC5 cells assessed as reduction in cell number measured after 72 hrs by Hoechst 33342 staining based microscopic analysis. The class given is toxicity. As to conditions: mrc5, 72 h.
Series [2] has as its target T1, Enoyl-[acyl-carrier-protein] reductase [NADH] (Mycobacterium tuberculosis) (UniProt P9WGR1).
T1 sequence (whole entry): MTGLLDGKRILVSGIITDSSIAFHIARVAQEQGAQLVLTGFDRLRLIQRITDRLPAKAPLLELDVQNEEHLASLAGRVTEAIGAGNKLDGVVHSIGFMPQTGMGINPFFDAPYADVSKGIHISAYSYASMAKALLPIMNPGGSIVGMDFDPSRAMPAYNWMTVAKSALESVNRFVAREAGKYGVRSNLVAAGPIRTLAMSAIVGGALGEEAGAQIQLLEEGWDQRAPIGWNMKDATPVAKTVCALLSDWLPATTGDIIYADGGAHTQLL
The series can be described thus: Inhibition of Mycobacterium tuberculosis InhA at 50 uM using trans-2-dodecenoyl-coenzyme A as substrate in presence of NADH.

Series [3] relates to Mycobacterium tuberculosis. The series can be described thus: Antimycobacterial activity against 14C acetate-labeled Mycobacterium tuberculosis H37Ra assessed as reduction in trehalose dimycolates level at 3.7 uM incubated for 24 hrs by autoradiography based TLC analysis. The class given is functional, organism-based.
Series [4] deals with Mycobacterium tuberculosis. The series can be described thus: Antimycobacterial activity against 14C acetate-labeled Mycobacterium tuberculosis H37Ra assessed as reduction in trehalose monomycolates level at 3.7 uM incubated for 24 hrs by autoradiography based TLC analysis. It is filed as functional, organism-based.
Series [5] deals with Mycolicibacterium smegmatis. The series can be described thus: Antimycobacterial activity against Mycobacterium smegmatis MC2 155 assessed as inhibition of bacterial growth at 6.2 uM incubated for 16 hrs relative to control. The class given is functional.
Series [6] deals with Mycolicibacterium smegmatis. The series can be described thus: Antimycobacterial activity against Mycobacterium smegmatis MC2 155 assessed as reduction in trehalose monomycolates level at 6.2 uM incubated for 16 hrs by TLC analysis. The class given is functional, organism-based.
Series [7] has as its system Mycolicibacterium smegmatis. The series can be described thus: Antimycobacterial activity against Mycobacterium smegmatis MC2 155 assessed as reduction in trehalose dimycolates level at 6.2 uM incubated for 16 hrs by TLC analysis. It is filed as functional, organism-based.
Series [8] deals with Mycolicibacterium smegmatis. The series can be described thus: Antimycobacterial activity against Mycobacterium smegmatis MC2 155 assessed as reduction in cell wall bound mycolic acid methyl esters at 6.2 uM incubated for 16 hrs by TLC analysis. The class given is functional, organism-based.
For series [9], the system named is Mycolicibacterium smegmatis. The series can be described thus: Antimycobacterial activity against Mycobacterium smegmatis MC2 155 assessed as reduction in phosphatidylethanolamine synthesis at 6.2 uM incubated for 16 hrs by TLC analysis. The class given is functional, organism-based.
Series [10] has as its system Mycolicibacterium smegmatis. The series can be described thus: Disruption of trans-membrane electrical charge gradient of proton motive force in Mycobacterium smegmatis by DiSC3(5)-probe based fluorescence assay. The class given is functional, organism-based.
Series [11] can be described thus: as §1. It is filed as toxicity. To be noted: MRC5 cells, read-out: LD50.
For series [12], the system named is Mycolicibacterium smegmatis. The series can be described thus: Antimycobacterial activity against Mycobacterium smegmatis MC2 155 assessed as inhibition of bacterial growth at 2 uM incubated for 16 hrs relative to control. The class given is functional.
The subject of series [13] is Mycolicibacterium smegmatis. The series can be described thus: Antimycobacterial activity against Mycobacterium smegmatis MC2 155 assessed as inhibition of bacterial growth at 5 uM incubated for 16 hrs relative to control. It is filed as functional.
The test system of series [14] is Mycolicibacterium smegmatis. The series can be described thus: Antimycobacterial activity against Mycobacterium smegmatis MC2 155 assessed as inhibition of bacterial growth at 10 uM incubated for 16 hrs relative to control. It is filed as functional.
For series [15], the system named is Mycolicibacterium smegmatis. The series can be described thus: Disruption of trans-membrane electrical charge gradient of proton motive force in Mycobacterium smegmatis at 30 uM by DiSC3(5)-probe based fluorescence assay. The class given is functional, organism-based.
Series [16] addresses T1, Enoyl-[acyl-carrier-protein] reductase [NADH] (Mycobacterium tuberculosis). The series can be described thus: Inhibition of Mycobacterium tuberculosis InhA at 5 uM using trans-2-dodecenoyl-Coenzyme A as substrate in presence of NADH relative to control.
Series [17] has as its system Mycobacterium tuberculosis. The series can be described thus: Antimycobacterial activity against 14C acetate-labeled Mycobacterium tuberculosis H37Ra assessed as inhibition of bacterial growth at 42 uM incubated for 24 hrs by autoradiography based TLC analysis relative to control. It is filed as functional.
In series [18] the test system is Mycobacterium tuberculosis. The series can be described thus: Antimycobacterial activity against 14C acetate-labeled Mycobacterium tuberculosis H37Ra assessed as inhibition of bacterial growth at 84 uM incubated for 24 hrs by autoradiography based TLC analysis relative to control. The class given is functional. As to conditions: AT84.
The test system of series [19] is Mycobacterium tuberculosis. The series can be described thus: Antimycobacterial activity against 14C acetate-labeled Mycobacterium tuberculosis H37Ra assessed as reduction in trehalose dimycolates level at 42 to 84 uM incubated for 24 hrs by autoradiography based TLC analysis. The class given is functional, organism-based. As to conditions: dose 42-84 µM.
The subject of series [20] is Mycobacterium tuberculosis. The series can be described thus: Antimycobacterial activity against 14C acetate-labeled Mycobacterium tuberculosis H37Ra assessed as reduction in trehalose monomycolates level at 42 to 84 uM incubated for 24 hrs by autoradiography based TLC analysis. It is filed as functional, organism-based. To be noted: dose 42-84 µM.
For series [21], the system named is Mycobacterium tuberculosis. The series can be described thus: Antimycobacterial activity against 14C acetate-labeled Mycobacterium tuberculosis H37Ra assessed as reduction in cell wall bound mycolic acid level at 42 to 84 uM incubated for 24 hrs by autoradiography based TLC analysis. It is filed as functional, organism-based. To be noted: dose 42-84 µM.
Series [22] concerns Mycolicibacterium smegmatis. The series can be described thus: Antimycobacterial activity against Mycobacterium smegmatis MC2 155 assessed as inhibition of bacterial growth at 16.8 uM incubated for 16 hrs relative to control. It is filed as functional.
In series [23] the test system is Mycolicibacterium smegmatis. The series can be described thus: Antimycobacterial activity against Mycobacterium smegmatis MC2 155 assessed as reduction in trehalose monomycolates level at 16.8 uM incubated for 16 hrs by TLC analysis. The class given is functional, organism-based.
Series [24] relates to Mycolicibacterium smegmatis. The series can be described thus: Antimycobacterial activity against Mycobacterium smegmatis MC2 155 assessed as reduction in cell wall bound mycolic acid methyl esters at 16.8 uM incubated for 16 hrs by TLC analysis. It is filed as functional, organism-based.
Series [25] has as its system Mycolicibacterium smegmatis. The series can be described thus: Antimycobacterial activity against Mycobacterium smegmatis MC2 155 assessed as reduction in trehalose dimycolates level at 16.8 uM incubated for 16 hrs by TLC analysis. The class given is functional, organism-based.
The test system of series [26] is Mycolicibacterium smegmatis. The series can be described thus: Antimycobacterial activity against Mycobacterium smegmatis MC2 155 assessed as reduction in phosphatidylethanolamine synthesis at 16.8 uM incubated for 16 hrs by TLC analysis. It is filed as functional, organism-based.
The subject of series [27] is Mycolicibacterium smegmatis. The series can be described thus: Disruption of trans-membrane electrical charge gradient of proton motive force in Mycobacterium smegmatis up to 280 uM by DiSC3(5)-probe based fluorescence assay. The class given is functional, organism-based.
For series [28], the system named is Escherichia coli. The series can be described thus: Antibacterial activity against Escherichia coli BL21(DE3) assessed as inhibition of bacterial growth incubated for 4 hrs. It is filed as functional, organism-based. To be noted: dose 35-140 µM.
For series [29], the system named is Escherichia coli. The series can be described thus: Antibacterial activity against Escherichia coli BL21(DE3) assessed as reduction in phosphatidylethanolamine incubated for 4 hrs by TLC analysis. It is filed as functional, organism-based.

A word on the MIC: it is the least concentration at which growth counts as inhibited. For the molecule `Oc1cc(Cl)ccc1Oc1ccc(Cl)cc1Cl` [TRICLOSAN], the MIC in series [1] is 34.5 µM and 10 µg/mL.

For the molecule `O=C1C(C2c3ccccc3-c3ccccc32)CCN1Cc1ccccc1` (stereo unspecified), the MIC in series [1] was > 74 µM and > 25 µg/mL.

In the case of `O=C1C(C2c3ccccc3-c3ccccc32)CCN1Cc1ccc(Cl)cc1` (stereo unspecified), the MIC in [1] was 69 µM and 25 µg/mL. The Activity entry in the series with MRC5 was “Non-Toxic”.

One may read the inhibition as the change of the read-out against control, counted positive when it falls. Take `O=C1C(C2c3ccccc3-c3ccccc32)CCN1c1cc(Cl)cc(Cl)c1` (stereo unspecified): the outcome in [1] (time 21.0 day) was inactive. Besides, the inhibition entry in series [2] was “inactive”.

On to `O=C1C(C2c3ccccc3-c3ccccc32)CCN1CCc1ccccc1` (stereo unspecified), for which, in series [1], the MIC was 1 µg/mL and 2.8 µM.

As for `NNC(=O)c1ccncc1` [ISONIAZID], in [1], the MIC turned out to be 0.025 µg/mL (≈ 0.182 µM). Besides, the outcome in series [3] and in series [4] was Active.

Turning to `O=C(Nc1ccc(F)c(F)c1F)NC12CC3CC(CC(C3)C1)C2`, the inhibition at 6.2 µM in [5] is 60%. Besides, the outcome in series [6] and in [10] was inactive. In addition, the outcome in series [7], in series [8] and in [9] was Active.

As to `Fc1ccc(N2CCC(C3c4ccccc4-c4ccccc43)C2)cc1` (stereo unspecified), the MIC in [1] is 15.2 µM and 5 µg/mL.

On to `CCCCCCCCC(=O)N1CCC(C2c3ccccc3-c3ccccc32)C1=O` (stereo unspecified), for which the MIC in series [1] is 4 µg/mL and 10.3 µM.

For the molecule `CCCCCCCCC(=O)N1CCC(C2c3ccccc3-c3ccccc32)C1` (stereo unspecified), the MIC in series [1] is 21.3 µM and 8 µg/mL.

`c1ccc(CCN2CCC(C3c4ccccc4-c4ccccc43)C2)cc1` (stereo unspecified): the MIC in series [1] was 14.7 µM and 5 µg/mL. For the same molecule, in series [11], the CC50 at 72 h was 18.9 µM.

For `c1ccc(CN2CCC(C3c4ccccc4-c4ccccc43)C2)cc1` (stereo unspecified), the MIC in series [1] is 5 µg/mL and 15.4 µM.

`O=C1C(C2c3ccccc3-c3ccccc32)CCN1c1ccc(F)cc1` (stereo unspecified): the MIC in series [1] was 14.6 µM and 5 µg/mL.

As to `N#CC(C#N)=NNc1cccc(Cl)c1` [CARBONYL CYANIDE M-CHLOROPHENYLHYDRAZONE], the inhibition at 2 µM in [12] is 0.2%. For the same molecule, in series [13], the inhibition at 5 µM worked out at 9%. The inhibition at 10 µM in series [14] stood at 66%. In series [15], the outcome was Active.

Consider `O=C(c1ccccc1)N1CCC(C2c3ccccc3-c3ccccc32)C1=O` (stereo unspecified), for which the MIC in series [1] was > 45 µM and > 16 µg/mL.

Regarding `Clc1cc(Cl)cc(N2CCC(C3c4ccccc4-c4ccccc43)C2)c1` (stereo unspecified), the minimum inhibitory concentration (MIC) in series [1] was 66 µM and 25 µg/mL. In the series with MRC5, the Activity result was “Non-Toxic”.

Regarding `CCCCCCCCCN1CCC(C2c3ccccc3-c3ccccc32)C1=O` (stereo unspecified), the MIC in [1] is 5 µg/mL and 13.3 µM. The Activity result in the series on MRC5 is given as “Non-Toxic”.

For the molecule `O=C(c1ccccc1)N1CCC(C2c3ccccc3-c3ccccc32)C1` (stereo unspecified), the inhibition in [16] was determined as 50%. For the same molecule, the MIC in series [1] is above 16 µg/mL.

Turning to `CCCCCCCCCN1CCC(C2c3ccccc3-c3ccccc32)C1` (stereo unspecified), in series [1], the minimum inhibitory concentration (MIC) was 1 µg/mL and 2.8 µM.

Regarding `O=C(c1ccc2[nH]ccc2c1)N1CCN(C2c3ccccc3-c3ccccc32)CC1`, the MIC in [1] was > 16 µg/mL and > 40.7 µM.

`Clc1ccc(CN2CCC(C3c4ccccc4-c4ccccc43)C2)cc1` (stereo unspecified): in series [1], the MIC was 1.4 µM and 0.5 µg/mL. Further, the CC50 at 72 h in series [11] came out at 35 µM. Moreover, the inhibition at 42 µM in [17] was found to be 43%. Besides, the inhibition at 84 µM in series [18] was found to be 48%. Also, the result (in [19]; in [21]; in series [24]; in series [25]; in series [26]; with Escherichia coli [29]) was Active. The outcome in series [20], in series [23] and in series [27] was inactive. In addition, the inhibition at 16.8 µM in series [22] was determined as 57%. Also, the inhibition result in the series on Escherichia coli [28] was “Dose-Dependent Effect”.
